# According to patent publication US4443626A, “2,3-Dihydro-indene derivatives” (Hisamitsu Pharmaceutical Co., Inc., priority 1982, dated 1984):
# Tests used:
# mice = assay: Test for acute toxicity on mice; assay type: in vivo; details: one week after the administration, dead/tested
# Excerpt: Test for acute toxicity on mice
# Groups each consisting of 6 male mice of ddY strain weighing between 22 and 26 g were used in this experiment.
# Suspensions of the test compounds and indomethacin as the control in an 0.5% aqueous solution of tragacanth were orally administered respectively to the test animals, after which the test animals had been observed for a week to find the lethality thereof.
# passive Arthus reaction = assay: Effect on passive Arthus reaction in rats (hind paw swelling); assay type: in vivo, rat (Wistar strain, male); details: Rattus norvegicus, po, 3 h, read-out: Swelling inhibiting ratio; for inhibition in vivo at 100 mg/kg: 100 mg/kg orally, one hour before induction, hind paw volume measured three hours after induction, anti BSA rabbit serum / BSA, relative to control group
# Method: Effect on passive Arthus reaction in rats
# The rats which had been fasted for 18 hours were sensitized by injecting 0.3 ml of a 10% solution of an anti BSA rabbit serum (precipitation titer, 32 times) to them at the tail vein. […] On the other hand, only the vehicle was administered to the remainder of the test animals. [formula]
SMILES,inhibition in vivo at 100 mg/kg (passive Arthus reaction) [%],"Lethality (mice; 2,000 mg/kg orally)",other results
"COc1ccc2c(c1)c(CC(=O)O)c(C)n2C(=O)c1ccc(Cl)cc1 [Indomethacin, indomethacin, reference compound]",,,Lethality (mice; 50 mg/kg orally): 6/6; inhibition in vivo at 5 mg/kg (passive Arthus reaction): 8.1%
"O=C(O)CCCC1Cc2c(Cl)cccc2C1=O (stereo not shown) [Example 11, 4-chloro-1-oxo-2,3-dihydro-2-indene butyric acid]",13.9,,
"O=C(O)CCCC1Cc2c(Cl)cc(Cl)cc2C1=O (stereo not shown) [Example 13, 4,6-dichloro-1-oxo-2,3-dihydro-2-indene butyric acid]",22.5,1/6,
"O=C(O)CCCC1Cc2ccc(Cl)cc2C1=O (stereo not shown) [Example 2, 6-chloro-1-oxo-2,3-dihydro-2-indene butyric acid]",37.7,2/6,
"O=C(O)CCC1Cc2c(F)cccc2C1=O (stereo not shown) [Example 5, 4-fluoro-1-oxo-2,3-dihydro-2-indene propionic acid]",41.7,2/6,
"O=C(O)CCCCC1Cc2cc(Cl)ccc2C1=O (stereo not shown) [Example 15, 5-chloro-1-oxo-2,3-dihydro-2-indene valeric acid]",35.3,0/6,
"O=C(O)CCCCC1Cc2ccc(Cl)cc2C1=O (stereo not shown) [Example 16, 6-chloro-1-oxo-2,3-dihydro-2-indene valeric acid]",16.2,,
"O=C(O)CCCC1Cc2ccc(F)cc2C1=O (stereo not shown) [Example 1, 6-fluoro-1-oxo-2,3-dihydro-2-indene butyric acid]",26.7,1/6,
"O=C(O)CCCCC1Cc2c(Cl)cccc2C1=O (stereo not shown) [Example 14, 4-chloro-1-oxo-2,3-dihydro-2-indene valeric acid]",18.6,0/6,
"O=C(O)CCC1Cc2ccc(F)cc2C1=O (stereo not shown) [Example 6, 6-fluoro-1-oxo-2,3-dihydro-2-indene propionic acid]",39.4,2/6,"Lethality (mice; 500 mg/kg orally): 0/6; Lethality (mice; 1,000 mg/kg orally): 0/6"
"O=C(O)CCC1Cc2cc(Cl)ccc2C1=O (stereo not shown) [Example 8, 5-chloro-1-oxo-2,3-dihydro-2-indene propionic acid]",17.5,,
"O=C(O)CCC1Cc2ccc(Cl)cc2C1=O (stereo not shown) [Example 3, 6-chloro-1-oxo-2,3-dihydro-2-indene propionic acid]",13.7,,
